Measured values as given in the supplement of paper PMC10307832.

Tests used:
Test in all cases: relative viability (nuclei count vs DMSO), 5 days (fraction); higher = more cells survive
[1] = compound: Cn1c(Nc2ccc(C(F)(F)F)cc2)nc2cc(Oc3ccnc(-c4ncc(C(F)(F)F)[nH]4)c3)ccc21 [RAF265] + C[C@@H](Oc1cc(-c2cnn(C3CCNCC3)c2)cnc1N)c1c(Cl)ccc(F)c1Cl [Crizotinib] (partner 1 µM)
In short: (§1)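 Relative viability was taken as the ratio of nuclei in treated wells to nuclei in vehicle wells. Lung cancer cell lines in 1536-well plates received compounds by pin tool one day after seeding, either one drug alone or a fixed anchor-drug dose plus five library-drug doses (not always all listed) in √10 steps. Nuclei were counted on 4× images after 5 days of treatment, and values are medians of duplicate plates.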

[2] = compound: Cn1c(Nc2ccc(C(F)(F)F)cc2)nc2cc(Oc3ccnc(-c4ncc(C(F)(F)F)[nH]4)c3)ccc21 [RAF265] + Cc1nc(NC(=O)N2CCC[C@H]2C(N)=O)sc1-c1ccnc(C(C)(C)C(F)(F)F)c1 [Alpelisib] (partner 2 µM)
In short: as §1

[3] = compound: Cn1c(Nc2ccc(C(F)(F)F)cc2)nc2cc(Oc3ccnc(-c4ncc(C(F)(F)F)[nH]4)c3)ccc21 [RAF265] + COc1cccc2cc(-c3nc([C@H]4CC[C@H](C(=O)O)CC4)n4ncnc(N)c34)[nH]c12 [OSI-027] (partner 0.5 µM)
In short: as §1

[4] = compound: Cn1c(Nc2ccc(C(F)(F)F)cc2)nc2cc(Oc3ccnc(-c4ncc(C(F)(F)F)[nH]4)c3)ccc21 [RAF265] + COc1cc2c(Oc3ccc(NC(=O)C4(C(=O)Nc5ccc(F)cc5)CC4)cc3F)ccnc2cc1OCCCN1CCOCC1 [Foretinib] (partner 0.25 µM)
In short: as §1

Cell Line: H3255
- relative viability ([1]; first compound 0.01 µM): 0.928
- relative viability ([1]; first compound 0.03162 µM): 0.83
- relative viability ([1]; first compound 0.1 µM): 1.12
- relative viability ([1]; first compound 1 µM): 0.671
- relative viability ([2]; first compound 0.01 µM): 0.706
- relative viability ([2]; first compound 0.03162 µM): 0.836
- relative viability ([2]; first compound 0.1 µM): 0.691
- relative viability ([2]; first compound 1 µM): 0.455
- relative viability ([3]; first compound 0.01 µM): 0.741
- relative viability ([3]; first compound 0.03162 µM): 0.601
- relative viability ([3]; first compound 0.1 µM): 0.563
- relative viability ([3]; first compound 1 µM): 0.473
- relative viability ([4]; first compound 0.01 µM): 0.88
- relative viability ([4]; first compound 0.03162 µM): 0.88
- relative viability ([4]; first compound 0.1 µM): 0.847
- relative viability ([4]; first compound 1 µM): 0.55

Cell Line: HARA
- relative viability ([1]; first compound 0.01 µM): 1.1
- relative viability ([1]; first compound 0.03162 µM): 0.965
- relative viability ([1]; first compound 0.1 µM): 1.03
- relative viability ([1]; first compound 0.3162 µM): 0.906
- relative viability ([1]; first compound 1 µM): 0.652
- relative viability ([2]; first compound 0.01 µM): 0.762
- relative viability ([2]; first compound 0.03162 µM): 0.708
- relative viability ([2]; first compound 0.1 µM): 0.736
- relative viability ([2]; first compound 0.3162 µM): 0.477
- relative viability ([2]; first compound 1 µM): 0.287
- relative viability ([3]; first compound 0.01 µM): 0.491
- relative viability ([3]; first compound 0.03162 µM): 0.417
- relative viability ([3]; first compound 0.1 µM): 0.423
- relative viability ([3]; first compound 0.3162 µM): 0.187
- relative viability ([3]; first compound 1 µM): 0.101
- relative viability ([4]; first compound 0.01 µM): 0.573
- relative viability ([4]; first compound 0.03162 µM): 0.777
- relative viability ([4]; first compound 0.1 µM): 0.931
- relative viability ([4]; first compound 0.3162 µM): 0.53
- relative viability ([4]; first compound 1 µM): 0.38

Cell Line: HCC-15
- relative viability ([1]; first compound 0.01 µM): 0.83
- relative viability ([1]; first compound 0.03162 µM): 0.817
- relative viability ([1]; first compound 0.1 µM): 0.836
- relative viability ([1]; first compound 0.3162 µM): 0.566
- relative viability ([1]; first compound 1 µM): 0.499
- relative viability ([2]; first compound 0.01 µM): 0.949
- relative viability ([2]; first compound 0.03162 µM): 0.776
- relative viability ([2]; first compound 0.1 µM): 0.844
- relative viability ([2]; first compound 0.3162 µM): 0.544
- relative viability ([2]; first compound 1 µM): 0.439
- relative viability ([3]; first compound 0.01 µM): 0.674
- relative viability ([3]; first compound 0.03162 µM): 0.605
- relative viability ([3]; first compound 0.1 µM): 0.566
- relative viability ([3]; first compound 0.3162 µM): 0.26
- relative viability ([3]; first compound 1 µM): 0.304
- relative viability ([4]; first compound 0.01 µM): 1.03
- relative viability ([4]; first compound 0.03162 µM): 1.04
- relative viability ([4]; first compound 0.1 µM): 0.991
- relative viability ([4]; first compound 0.3162 µM): 0.883
- relative viability ([4]; first compound 1 µM): 0.673

Cell Line: HCC-44
- relative viability ([1]; first compound 0.01 µM): 0.791
- relative viability ([1]; first compound 0.03162 µM): 0.679
- relative viability ([1]; first compound 0.1 µM): 0.854
- relative viability ([1]; first compound 0.3162 µM): 0.83
- relative viability ([1]; first compound 1 µM): 0.772
- relative viability ([2]; first compound 0.01 µM): 0.743
- relative viability ([2]; first compound 0.03162 µM): 0.699
- relative viability ([2]; first compound 0.1 µM): 0.882
- relative viability ([2]; first compound 0.3162 µM): 0.75
- relative viability ([2]; first compound 1 µM): 0.695
- relative viability ([3]; first compound 0.01 µM): 0.735
- relative viability ([3]; first compound 0.03162 µM): 0.479
- relative viability ([3]; first compound 0.1 µM): 0.636
- relative viability ([3]; first compound 0.3162 µM): 0.449
- relative viability ([3]; first compound 1 µM): 0.477

Cell Line: HCC-78
- relative viability ([1]; first compound 0.01 µM): 0.337
- relative viability ([1]; first compound 0.03162 µM): 0.288
- relative viability ([1]; first compound 0.1 µM): 0.381
- relative viability ([1]; first compound 0.3162 µM): 0.301
- relative viability ([1]; first compound 1 µM): 0.359
- relative viability ([2]; first compound 0.01 µM): 0.33
- relative viability ([2]; first compound 0.03162 µM): 0.358
- relative viability ([2]; first compound 0.1 µM): 0.432
- relative viability ([2]; first compound 0.3162 µM): 0.291
- relative viability ([2]; first compound 1 µM): 0.249
- relative viability ([3]; first compound 0.01 µM): 0.35
- relative viability ([3]; first compound 0.03162 µM): 0.424
- relative viability ([3]; first compound 0.1 µM): 0.396
- relative viability ([3]; first compound 0.3162 µM): 0.346
- relative viability ([3]; first compound 1 µM): 0.341
- relative viability ([4]; first compound 0.01 µM): 0.512
- relative viability ([4]; first compound 0.03162 µM): 0.587
- relative viability ([4]; first compound 0.1 µM): 0.583
- relative viability ([4]; first compound 0.3162 µM): 0.617
- relative viability ([4]; first compound 1 µM): 0.526

Cell Line: HCC-366
- relative viability ([1]; first compound 0.01 µM): 0.487
- relative viability ([1]; first compound 0.03162 µM): 0.473
- relative viability ([1]; first compound 0.1 µM): 0.739
- relative viability ([1]; first compound 0.3162 µM): 0.626
- relative viability ([1]; first compound 1 µM): 0.404
- relative viability ([2]; first compound 0.01 µM): 0.404
- relative viability ([2]; first compound 0.03162 µM): 0.432
- relative viability ([2]; first compound 0.1 µM): 0.539
- relative viability ([2]; first compound 0.3162 µM): 0.579
- relative viability ([2]; first compound 1 µM): 0.124
- relative viability ([3]; first compound 0.01 µM): 1.04
- relative viability ([3]; first compound 0.03162 µM): 0.939
- relative viability ([3]; first compound 0.1 µM): 0.834
- relative viability ([3]; first compound 0.3162 µM): 0.165
- relative viability ([3]; first compound 1 µM): 0.107
- relative viability ([4]; first compound 0.01 µM): 0.99
- relative viability ([4]; first compound 0.03162 µM): 0.841
- relative viability ([4]; first compound 0.1 µM): 0.9
- relative viability ([4]; first compound 0.3162 µM): 0.996
- relative viability ([4]; first compound 1 µM): 0.914

Cell Line: HCC-827
- relative viability ([1]; first compound 0.01 µM): 0.931
- relative viability ([1]; first compound 0.03162 µM): 1
- relative viability ([1]; first compound 0.1 µM): 1.01
- relative viability ([1]; first compound 1 µM): 0.871
- relative viability ([2]; first compound 0.01 µM): 0.984
- relative viability ([2]; first compound 0.03162 µM): 1.02
- relative viability ([2]; first compound 0.1 µM): 1.01
- relative viability ([2]; first compound 1 µM): 0.735
- relative viability ([3]; first compound 0.01 µM): 0.754
- relative viability ([3]; first compound 0.03162 µM): 0.783
- relative viability ([3]; first compound 0.1 µM): 0.708
- relative viability ([3]; first compound 1 µM): 0.649
- relative viability ([4]; first compound 0.01 µM): 0.986
- relative viability ([4]; first compound 0.03162 µM): 0.971
- relative viability ([4]; first compound 0.1 µM): 1.06
- relative viability ([4]; first compound 1 µM): 0.729

Cell Line: IA-LM
- relative viability ([1]; first compound 0.01 µM): 0.711
- relative viability ([1]; first compound 0.03162 µM): 0.646
- relative viability ([1]; first compound 0.1 µM): 0.803
- relative viability ([1]; first compound 0.3162 µM): 0.768
- relative viability ([1]; first compound 1 µM): 0.642
- relative viability ([2]; first compound 0.01 µM): 0.774
- relative viability ([2]; first compound 0.1 µM): 0.587
- relative viability ([2]; first compound 0.3162 µM): 0.752
- relative viability ([2]; first compound 1 µM): 0.44
- relative viability ([4]; first compound 0.01 µM): 1.21
- relative viability ([4]; first compound 0.03162 µM): 0.933
- relative viability ([4]; first compound 0.1 µM): 1
- relative viability ([4]; first compound 0.3162 µM): 0.946
- relative viability ([4]; first compound 1 µM): 0.769
